According to PubChem BioAssay AID248 (DTP/NCI, 2004):
Where “and” joins values, the source holds several entries; their conditions need not be identical. Identical values can stand only once. Inconclusive results and toxic doses are left out. Rule as the data show it: active = T/C of 150% or more; inactive = T/C below 125%.

Tested on: L1210 leukemia ip in BDF1 mice, survival T/C
Assay: NCI In Vivo Anticancer Drug Screen. Data for tumor model L1210 Leukemia (intraperitoneal) in B6D2F1 (BDF1) mice
Conditions: endpoint: mean survival time, higher = longer survival
Method in brief: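 Tumor cells were implanted, animals were treated, and survival was followed. The result divides the treated measurement by the vehicle-control measurement.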

[1] = dose: 100.0 mg/kg/injection, schedule: Q01DX009 (ip), vehicle: saline with Tween-80
[2] = dose: 100.0 mg/kg/injection, schedule: Q04DX003 (ip), vehicle: Klucel (hydroxypropylcellulose) (HPC)
[3] = dose: 200.0 mg/kg/injection, schedule: Q01DX009 (ip), vehicle: saline with Tween-80
[4] = dose: 200.0 mg/kg/injection, schedule: Q04DX003 (ip), vehicle: Klucel (hydroxypropylcellulose) (HPC)
[5] = dose: 400.0 mg/kg/injection, schedule: Q04DX003 (ip), vehicle: Klucel (hydroxypropylcellulose) (HPC)
[6] = dose: 50.0 mg/kg/injection, schedule: Q01DX Z (ip), vehicle: carboxymethylcellulose (CMC)
[7] = dose: 100.0 mg/kg/injection, schedule: Q01DX009 (ip), vehicle: Klucel (hydroxypropylcellulose) (HPC)
[8] = dose: 100.0 mg/kg/injection, schedule: Q01DX Z (ip), vehicle: carboxymethylcellulose (CMC)
[9] = dose: 200.0 mg/kg/injection, schedule: Q01DX009 (ip), vehicle: Klucel (hydroxypropylcellulose) (HPC)
[10] = dose: 50.0 mg/kg/injection, schedule: Q01DX009 (ip), vehicle: saline with Tween-80
[11] = dose: 100.0 mg/kg/injection, schedule: Q04DX002 (ip), vehicle: saline
[12] = dose: 200.0 mg/kg/injection, schedule: Q04DX002 (ip), vehicle: saline
[13] = dose: 400.0 mg/kg/injection, schedule: Q04DX002 (ip), vehicle: saline
[14] = dose: 400.0 mg/kg/injection, schedule: Q01DX009 (ip), vehicle: Klucel (hydroxypropylcellulose) (HPC)
[15] = dose: 100.0 mg/kg/injection, schedule: Q04DX003 (ip), vehicle: saline
[16] = dose: 200.0 mg/kg/injection, schedule: Q04DX003 (ip), vehicle: saline
[17] = dose: 400.0 mg/kg/injection, schedule: Q04DX003 (ip), vehicle: saline
[18] = dose: 100.0 mg/kg/injection, schedule: Q04DX002 (ip), vehicle: saline with Tween-80
[19] = dose: 200.0 mg/kg/injection, schedule: Q04DX002 (ip), vehicle: saline with Tween-80
[20] = dose: 100.0 mg/kg/injection, schedule: Q04DX002 (ip), vehicle: Klucel (hydroxypropylcellulose) (HPC)
[21] = dose: 200.0 mg/kg/injection, schedule: Q04DX002 (ip), vehicle: Klucel (hydroxypropylcellulose) (HPC)
[22] = dose: 400.0 mg/kg/injection, schedule: Q04DX002 (ip), vehicle: Klucel (hydroxypropylcellulose) (HPC)
[23] = dose: 100.0 mg/kg/injection, schedule: Q01DX001 (ip), vehicle: saline
[24] = dose: 200.0 mg/kg/injection, schedule: Q01DX001 (ip), vehicle: saline
[25] = dose: 400.0 mg/kg/injection, schedule: Q01DX001 (ip), vehicle: saline

Measured: T/C

N#CC(C#N)=Cc1ccc([N+](=O)[O-])o1
inactive: dose: 1.56 mg/kg/injection, schedule: Q04DX003 (ip), vehicle: saline 103 % of control | dose: 3.12 mg/kg/injection, schedule: Q01DX009 (ip), vehicle: Klucel (hydroxypropylcellulose) (HPC) 103 % of control | dose: 3.12 mg/kg/injection, schedule: Q04DX003 (ip), vehicle: saline 92 % of control | dose: 6.25 mg/kg/injection, schedule: Q01DX009 (ip), vehicle: Klucel (hydroxypropylcellulose) (HPC) 104 % of control | dose: 6.25 mg/kg/injection, schedule: Q04DX003 (ip), vehicle: saline 103 % of control

CN(C)c1ccc2cc(S(=O)(=O)O)cc(O)c2c1
inactive: [1] 102 % of control | [2] 105 % of control | [3] 96 % of control | [4] 95 % of control | dose: 400.0 mg/kg/injection, schedule: Q01DX009 (ip), vehicle: saline with Tween-80 94 % of control | [5] 93 % of control

CC(C)N(CCCCO)C(C)C
inactive: dose: 100.0 mg/kg/injection, schedule: Q01DX001 (ip), vehicle: carboxymethylcellulose (CMC) 91 % of control

O=C(O)c1ccc(-c2ccccc2)cc1
inactive: [6] 92 % of control | [7] 95 % of control | [8] 93 % of control | [2] 104 % of control | [9] 98 % of control | dose: 200.0 mg/kg/injection, schedule: Q01DX Z (ip), vehicle: carboxymethylcellulose (CMC) 97 % of control | [4] 93 % of control | [5] 104 % of control

CC(=O)c1ccc(OC(=O)Nc2ccccc2F)cc1
inactive: dose: 25.0 mg/kg/injection, schedule: Q01DX009 (ip), vehicle: saline with Tween-80 112 % of control | [10] 111 % of control | [1] 96 % of control and 110 % of control

COc1cc2c(cc1OC)C1(NCC2)C(=O)Nc2c(C)cc(Cl)cc21 (configuration not stated)
inactive: dose: 25.0 mg/kg/injection, schedule: Q04DX002 (ip), vehicle: saline 103 % of control | dose: 50.0 mg/kg/injection, schedule: Q04DX002 (ip), vehicle: saline 92 % of control | [11] 95 % of control and 100 % of control | [12] 92 % of control | [13] 90 % of control

CCCC(=O)OCC
inactive: [7] 100 % of control | [9] 105 % of control | [14] 97 % of control

O/N=C/Cc1ccccc1
inactive: dose: 100.0 mg/kg/injection, schedule: Q04DX002 (ip), vehicle: DMSO 103 % of control | dose: 200.0 mg/kg/injection, schedule: Q04DX002 (ip), vehicle: DMSO 123 % of control

CCOC(/C=C(\C)C(C)=O)OCC
inactive: [15] 97 % of control | [16] 98 % of control | [17] 95 % of control

CCN1CC2C3CCC(C)(O3)C2C1 (configuration not stated)
inactive: dose: 44.0 mg/kg/injection, schedule: Q01DX Z (ip), vehicle: methylcellulose (MC) 100 % of control | dose: 66.0 mg/kg/injection, schedule: Q01DX Z (ip), vehicle: methylcellulose (MC) 92 % of control | dose: 100.0 mg/kg/injection, schedule: Q01DX Z (ip), vehicle: methylcellulose (MC) 98 % of control

Cc1ccc(O)c(C(c2cc(S(=O)(=O)O)c(O)cc2C)N2CN(C(c3cc(S(=O)(=O)O)c(O)cc3C)c3cc(C)ccc3O)C2=O)c1 (configuration not stated)
inactive: [18] 101 % of control | [19] 93 % of control

O=[N+]([O-])c1ccc2c(c1)-c1ccccc1C2O (configuration not stated)
inactive: dose: 100.0 mg/kg/injection, schedule: Q01DX005 (ip), vehicle: Klucel (hydroxypropylcellulose) (HPC) 105 % of control | [20] 107 % of control | dose: 200.0 mg/kg/injection, schedule: Q01DX005 (ip), vehicle: Klucel (hydroxypropylcellulose) (HPC) 94 % of control | [21] 93 % of control | dose: 400.0 mg/kg/injection, schedule: Q01DX005 (ip), vehicle: Klucel (hydroxypropylcellulose) (HPC) 91 % of control | [22] 104 % of control

CC1CCN(C(=O)CCCCl)CC1
inactive: [11] 104 % of control | [12] 114 % of control

CC(C)N(C(=O)/C=C/C(=O)N(C(C)C)C(C)C)C(C)C
inactive: dose: 25.0 mg/kg/injection, schedule: Q04DX003 (ip), vehicle: saline 92 % of control | dose: 50.0 mg/kg/injection, schedule: Q04DX003 (ip), vehicle: saline 95 % of control | dose: 100.0 mg/kg/injection, schedule: Q04DX003 (ip), vehicle: saline with Tween-80 100 % of control | [15] 98 % of control | dose: 200.0 mg/kg/injection, schedule: Q04DX003 (ip), vehicle: saline with Tween-80 96 % of control

N=C(N)SCc1ccc(Cl)cc1N
inactive: dose: 25.0 mg/kg/injection, schedule: Q04DX002 (ip), vehicle: Klucel (hydroxypropylcellulose) (HPC) 97 % of control | dose: 50.0 mg/kg/injection, schedule: Q04DX002 (ip), vehicle: Klucel (hydroxypropylcellulose) (HPC) 102 % of control | [20] 103 % of control

Cn1cnc(/C(N)=N\O)c1N
inactive: dose: 25.0 mg/kg/injection, schedule: Q01DX005 (ip), vehicle: saline 102 % of control | dose: 50.0 mg/kg/injection, schedule: Q01DX005 (ip), vehicle: saline 113 % of control | dose: 100.0 mg/kg/injection, schedule: Q01DX005 (ip), vehicle: saline 107 % of control

Nc1ccc(NS(=O)(=O)CCl)cc1
inactive: [18] 111 % of control | [19] 116 % of control | dose: 400.0 mg/kg/injection, schedule: Q04DX002 (ip), vehicle: saline with Tween-80 96 % of control

CC1(c2ccccc2)O[C@@H]2C[C@H]3[C@@H]4CCC5=CC(=O)C=C[C@]5(C)[C@@]4(F)[C@@H](O)C[C@]3(C)[C@]2(C(=O)CO)O1 (some centres not stated)
inactive: dose: 100.0 mg/kg/injection, schedule: Q01DX001 (sc), vehicle: steriod suspending solution 117 % of control | dose: 200.0 mg/kg/injection, schedule: Q01DX001 (sc), vehicle: steriod suspending solution 98 % of control | dose: 400.0 mg/kg/injection, schedule: Q01DX001 (sc), vehicle: steriod suspending solution 107 % of control

O=C(NCC(O)CNC(=O)Nc1ccc(C2=NCC(O)CN2)cc1)Nc1ccc(C2=NCC(O)CN2)cc1 (configuration not stated)
inactive: dose: 25.0 mg/kg/injection, schedule: Q01DX Z (ip), vehicle: carboxymethylcellulose (CMC) 100 % of control | [6] 108 % of control | [8] 121 % of control

Cc1cc(=O)[nH]c(/N=C(\N)Nc2ccc(Cl)cc2)n1
inactive: [11] 93 % of control | [12] 99 % of control | [13] 96 % of control

CC(Oc1cc(Cl)c(Cl)cc1Cl)C(=O)OCCCc1ccccn1 (configuration not stated)
inactive: dose: 50.0 mg/kg/injection, schedule: Q01DX009 (ip), vehicle: Klucel (hydroxypropylcellulose) (HPC) 106 % of control | [7] 100 % of control and 111 % of control | [20] 103 % of control | [9] 114 % of control | [21] 107 % of control | [22] 90 % of control

CCNC(=O)N=C1SCCS1
inactive: [11] 118 % of control | [12] 118 % of control | [13] 96 % of control

CC(C)=Nc1cccc(B(O)O)c1
inactive: [23] 98 % of control | [24] 88 % of control | [25] 95 % of control

Cc1ccc([N+](=O)[O-])cc1NC(=O)Nc1ccccc1F
inactive: [7] 89 % of control | [9] 92 % of control | [14] 87 % of control

CCCCNc1c(C(=O)OCC)c[nH]c(=O)c1C(C)=O
inactive: [2] 97 % of control | [4] 97 % of control | [5] 87 % of control

COc1cccc(CC(C)(C)CCO)c1
inactive: [10] 102 % of control | [1] 100 % of control | [3] 96 % of control

CC(C)(CC(=O)O)c1ccccc1
inactive: [23] 96 % of control | dose: 100.0 mg/kg/injection, schedule: Q01DX009 (ip), vehicle: saline 104 % of control | [15] 100 % of control | [24] 106 % of control | dose: 200.0 mg/kg/injection, schedule: Q01DX009 (ip), vehicle: saline 101 % of control | [16] 104 % of control | [25] 96 % of control | dose: 400.0 mg/kg/injection, schedule: Q01DX009 (ip), vehicle: saline 96 % of control | [17] 91 % of control
